# Experimental data published in PMC9127750, “Structure-based design of CDC42 effector interaction inhibitors for the treatment of cancer” (Cell reports, 2022).
# Tested on: WM3248 melanoma cells, 486 antibodies
# Assay: Reverse phase protein arrays (RPPA);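 for RPPA ACC1.R.C: ratio of treated to vehicle (0 µM) normalized linear protein signal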;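 for RPPA AMPK.a2 pS345.R.V: ratio of treated to vehicle (0 µM) normalized linear protein signal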;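 for RPPA AMPKa pT172.R.C: ratio of treated to vehicle (0 µM) normalized linear protein signal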;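 for RPPA ASNS.R.V: ratio of treated to vehicle (0 µM) normalized linear protein signal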
# Type: cell-based, Human
# Conditions: 5 uM
# Text: Pellets were snap frozen in liquid nitrogen and shipped to MD Anderson Cancer Center core RPPA facility for RPPA analysis (Table S5). Three biological replicates for each sample were generated.
# Nomenclatures on the RPPA heatmaps: name_of_antibody.species_of_antibody.status_of_antibody. V - antibody validated; C - validation of antibody in progress; Q - antibody nonspecific; E – under evaluation; antibodies raised in M - mouse, G - goat, R - rabbit, or T - rat.
compound,measurement,setting,value
"CN(C)c1cccc(Nc2cc(-c3ccccc3)nc(C3CCNCC3)n2)c1 [ARN22089, N1,N1-dimethyl-N3-(6-phenyl-2-(piperidin-4-yl)pyrimidin-4-yl)benzene-1,3-diamine]",RPPA level Histone.H3_pS10.R.V,Average,0.786
same,RPPA level IGF1R_pY1135_Y1136.R.V,Average,1.035
same,RPPA level IGFBP2.R.V,Average,0.875
same,RPPA level IGFBP3.M.V,Average,0.957
same,RPPA level IGFRb.R.C,Average,1.062
same,RPPA level IL.6.R.C,Average,1.050
same,RPPA level IMP3.R.C,Average,0.997
same,RPPA level IR.b.R.C,Average,1.131
same,RPPA level IRF.1.R.V,Average,1.000
same,RPPA level IRF.3.R.V,Average,1.007
same,RPPA level IRS1.R.V,Average,1.078
same,RPPA level IRS2.R.C,Average,0.971
same,RPPA level JAB1.M.C,Average,0.973
same,RPPA level JNK2.R.V,Average,0.889
same,RPPA level JNK_pT183_Y185.R.C,Average,1.026
same,RPPA level Jak2.R.V,Average,1.011
same,RPPA level KAP1.R.V,Average,0.915
same,RPPA level KEAP1.R.V,Average,0.914
same,RPPA level LC3A.B.R.C,Average,0.914
same,RPPA level LCN2.R.V,Average,1.165
same,RPPA level LDHA.R.C,Average,0.789
same,RPPA level LRP6_pS1490.R.V,Average,1.065
same,RPPA level Lasu1.R.V,Average,0.902
same,RPPA level Lck.R.V,Average,0.925
same,RPPA level Lyn.R.V,Average,0.878
same,RPPA level MACC1.R.V,Average,1.021
same,RPPA level MAPK_pT202_Y204.R.C,Average,1.079
same,RPPA level MCT4.R.V,Average,0.958
same,RPPA level MDM2_pS166.R.V,Average,0.899
same,RPPA level MEK1.R.V,Average,1.584
same,RPPA level MEK1_pS217_S221.R.V,Average,1.125
same,RPPA level MERIT40.R.C,Average,0.975
same,RPPA level METTL3.R.V,Average,0.920
same,RPPA level MIF.R.C,Average,1.010
same,RPPA level MIG6.R.V,Average,1.024
same,RPPA level MITF.R.V,Average,0.967
same,RPPA level MLH1.M.V,Average,0.943
same,RPPA level MLKL.R.V,Average,0.967
same,RPPA level MMP2.R.V,Average,0.995
same,RPPA level MMP14.R.V,Average,0.964
same,RPPA level MR1.M.C,Average,1.033
same,RPPA level MRAP.R.C,Average,1.061
same,RPPA level MSH2.R.C,Average,0.932
same,RPPA level MSH6.R.C,Average,0.925
same,RPPA level MSI2.R.C,Average,1.004
same,RPPA level MTCO1.M.V,Average,0.944
same,RPPA level MTSS1.M.C,Average,0.998
same,RPPA level Mcl.1.R.V,Average,1.076
same,RPPA level MelanA.R.C,Average,1.025
same,RPPA level Melanoma.gp100.R.C,Average,1.061
same,RPPA level Merlin.R.C,Average,0.894
same,RPPA level Midkine.R.V,Average,1.001
same,RPPA level Mitofusin.1.R.V,Average,1.053
same,RPPA level Mitofusin.2.R.V,Average,1.013
same,RPPA level mTOR.R.V,Average,1.016
same,RPPA level mTOR_pS2448.R.C,Average,1.025
same,c.Jun_pS73.R.V RPPA level,Average,0.983
same,c.Kit.R.V RPPA level,Average,0.895
same,c.Met_pY1234_Y1235.R.V RPPA level,Average,1.062
same,c.Myc.R.C RPPA level,Average,1.010
same,cGAS.R.V RPPA level,Average,1.020
same,cdc2_pY15.R.C RPPA level,Average,1.200
same,RPPA A.Raf.R.V,B.1,0.964
same,RPPA A.Raf_pS299.R.C,B.1,1.002
same,RPPA ACC1.R.C,B.1,1.160
same,RPPA ACC_pS79.R.V,B.1,0.974
same,RPPA ACSL1.R.V,B.1,1.052
same,RPPA ACVRL1.R.C,B.1,1.027
same,RPPA ADAR1.M.V,B.1,0.990
same,RPPA ALKBH5.R.V,B.1,1.061
same,RPPA AMPK.a2_pS345.R.V,B.1,0.982
same,RPPA AMPKa.R.C,B.1,1.010
same,RPPA AMPKa_pT172.R.C,B.1,0.679
same,RPPA ARID1A.R.C,B.1,0.955
same,RPPA ASNS.R.V,B.1,1.050
same,RPPA ATM.R.V,B.1,1.017
same,RPPA ATM_pS1981.R.V,B.1,1.023
same,RPPA ATP5A.M.C,B.1,1.186
same,RPPA ATP5H.R.V,B.1,1.203
same,RPPA ATR.R.V,B.1,1.027
same,RPPA ATRX.R.C,B.1,0.816
same,RPPA ATR_pS428.R.C,B.1,0.959
